Assay results published in patent publication US9980943B2, “Methods of treating muscular dystrophy” (BOARD OF REGENTS OF THE NEVADA SYSTEM OF HIGHER EDUCATION, …, priority 2013, dated 2018).
Where two headings read alike, the source gives them in different places.

Experiments:
[1] = system: α7 integrin (LacZ reporter in α7LacZ+/− myoblasts); test: qHTS of the LOPAC library and MLSMR (online screen, α7LacZ+/− myoblasts); settings: Mus musculus, Myoblast; for activation at 0.307 µM: read-out: Activity at 0.307 uM [%] **; for activation at 1.53 µM: read-out: Activity at 1.530 uM [%] **; for activation at 7.66 µM: read-out: Activity at 7.660 uM [%] **; for activation at 38.3 µM: read-out: Activity at 38.30uM [%] **
[2] = system: α7 integrin (LacZ reporter in α7βgal+/− myoblasts); test: Myoblast α7+/LacZ integrin FDG assay (Burkin assay in myoblasts, 96-well); format: cell-based, mouse; settings: α7+/LacZ myoblasts, 96-well
[3] = system: α7 integrin (LacZ reporter in α7+/LacZ myotubes); test: Myotube α7 integrin FDG assay (Burkin assay in myotubes, 96-well); format: cell-based, mouse; settings: myotubes
[4] = system: β-galactosidase in CMV-LacZ C2C12 myoblasts; test: CMV-LacZ secondary screen in C2C12 myoblasts (β-Gal stabilizing assay); format: cell-based, mouse; settings: CMV-LacZ C2C12 myoblasts
From the text: In order to determine compounds that acted to stabilize β-gal in myogenic cells, a CMV-LacZ C2C12 cell line was used in a secondary screen. The EGFP gene from the pEGFP (Clontech) vector was replaced by LACZ PCR product with digests of the vector/PCR product performed using EcoRI (NEB) and NotI (NEB) and ligated using T4 DNA Ligase (NEB) following standard procedures to produce the CMV-LACZ vector. The LACZ gene was generated by PCR from the pBK-RSV (Stratagene) vector using primers LACZ EcoRI F- and LACZ NotI R-. The CMV-LACZ vector was then digested with AfIII (NEB) to linearize the construct, which was then transfected in C2C12 myoblasts using Lipofectamine 2000 (Invitrogen) following the manufacturer's instructions. […] Clonal lines were selected and screened for βgal levels using the myoblast FDG assay.
The assays were used the original 96-well format and new dose-response curves for myoblasts (N=3-6 replicates for each data point), myotubes (N=3-6 replicates for data point), and CMV-LacZ secondary assay (N=2 replicates for each data point) using concentrations of 0.5 μM, 1 μM, 5 μM, 10 μM, 20 μM, and 40 μM (Tables 9-16).

[5] = system: β-galactosidase in CMV-LacZ C2C12 myotubes; test: CMV-LacZ secondary screen in C2C12 myotubes (β-Gal stabilizing assay); format: cell-based, mouse; settings: C2C12 CMV-LacZ myotubes, fold relative to DMSO
Outline: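 Stable CMV-LacZ C2C12 clone; six-point curve 0.5–40 μM; duplicates.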

[6] = 48 h, read-out: Fit Infinite Activity [%]

SMILES | activation at 0.307 µM ([1]; 48 h) | activation at 1.53 µM ([1]; 48 h) | activation at 7.66 µM ([1]; 48 h) | activation at 38.3 µM ([1]; 48 h) | Emax [1, 6] | Emax ([1]; read-out: Max Response [%]) | Burkin Assay in Myoblasts, signal relative to DMSO ([2]; 0.5 uM) | Burkin Assay in Myoblasts, signal relative to DMSO ([2]; 1 uM) | Burkin Assay in Myoblasts, signal relative to DMSO ([2]; 5 uM) | Burkin Assay in Myoblasts, signal relative to DMSO ([2]; 10 uM) | Burkin Assay in Myoblasts, signal relative to DMSO ([2]; 20 uM) | Burkin Assay in Myoblasts, signal relative to DMSO ([2]; 40 uM) | Burkin Assay in Myotubes, α7 integrin LacZ reporter signal relative to DMSO ([3]; 0.5 uM) | Burkin Assay in Myotubes, α7 integrin LacZ reporter signal relative to DMSO ([3]; 1 uM) | Burkin Assay in Myotubes, α7 integrin LacZ reporter signal relative to DMSO ([3]; 5 uM) | Burkin Assay in Myotubes, α7 integrin LacZ reporter signal relative to DMSO ([3]; 10 uM) | Burkin Assay in Myotubes, α7 integrin LacZ reporter signal relative to DMSO ([3]; 20 uM) | Burkin Assay in Myotubes, α7 integrin LacZ reporter signal relative to DMSO ([3]; 40 uM) | CMV-LACZ in Myoblasts (β-galactosidase activity relative to DMSO) ([4]; 0.5 uM) | CMV-LACZ in Myoblasts (β-galactosidase activity relative to DMSO) ([4]; 1 uM) | also measured
CC(=O)Nc1nonc1-c1nc2ccccc2n1CCC(C)C [Compound 219] | -8.22% | -3.05% | 21.4% | 66% | 76.4% | 66% |  |  |  |  |  |  |  |  |  |  |  |  |  |  | 
C=CCn1c(COc2ccc(Cl)cc2)nnc1SCc1ccc(C#N)cc1 [Compound 220] | 7.14% | 9.51% | 27.6% | 93.8% | 95.1% | 93.8% |  |  |  |  |  |  |  |  |  |  |  |  |  |  | 
O=C(Cn1nc(-c2ccc(Cl)cc2)ccc1=O)N1CCC2(CC1)OCCO2 [Compound 221] | 6.38% | 7.87% | 16.8% | 66.1% | 66.5% | 66.1% |  |  |  |  |  |  |  |  |  |  |  |  |  |  | 
CCOC(=O)/C(C(=O)c1ccccc1)=C(\N)NCCO [Compound 222] | 9.44% | 9.77% | 16.5% | 66.5% | 66.8% | 66.5% |  |  |  |  |  |  |  |  |  |  |  |  |  |  | 
O=c1[nH]c(CN2CCCCC2)nc2c1C1(CCCCC1)Cc1ccccc1-2 [MLS000028160-01] |  |  |  |  |  |  | 1.037 | 0.9873 | 0.9805 | 0.8521 | 1.107 | 0.8535 | 1.085 | 1.102 | 0.9162 | 0.9598 | 0.9049 | 0.8112 | 1.0663 | 0.9029 | CMV-LACZ in Myoblasts (β-galactosidase activity relative to DMSO) ([4]; 5 uM): 0.9378; CMV-LACZ in Myoblasts (β-galactosidase activity relative to DMSO) ([4]; 10 uM): 1.2759; CMV-LACZ in Myoblasts (β-galactosidase activity relative to DMSO) ([4]; 20 uM): 0.8967; CMV-LACZ in Myoblasts (β-galactosidase activity relative to DMSO) ([4]; 40 uM): 0.8600; CMV-LACZ in Myotubes, signal relative to DMSO ([5]; 0.5 uM): 1.0524; CMV-LACZ in Myotubes, signal relative to DMSO ([5]; 1 uM): 1.0362; CMV-LACZ in Myotubes, signal relative to DMSO ([5]; 5 uM): 1.0348; CMV-LACZ in Myotubes, signal relative to DMSO ([5]; 10 uM): 0.9249; CMV-LACZ in Myotubes, signal relative to DMSO ([5]; 20 uM): 1.0471; CMV-LACZ in Myotubes, signal relative to DMSO ([5]; 40 uM): 1.1976
N#Cc1nc(COc2ccccc2)oc1N1CCCC1 [MLS000036988-01] |  |  |  |  |  |  | 1.189 | 1.0825 | 0.8657 | 0.8256 | 0.9023 | 0.6581 | 0.8553 | 0.7577 | 0.8099 | 0.8223 | 0.4172 | 0.104 | 1.0767 | 1.0846 | CMV-LACZ in Myoblasts (β-galactosidase activity relative to DMSO) ([4]; 5 uM): 0.9702; CMV-LACZ in Myoblasts (β-galactosidase activity relative to DMSO) ([4]; 10 uM): 1.0435; CMV-LACZ in Myoblasts (β-galactosidase activity relative to DMSO) ([4]; 20 uM): 0.8796; CMV-LACZ in Myoblasts (β-galactosidase activity relative to DMSO) ([4]; 40 uM): 0.6578; CMV-LACZ in Myotubes, signal relative to DMSO ([5]; 0.5 uM): 0.9867; CMV-LACZ in Myotubes, signal relative to DMSO ([5]; 1 uM): 0.8905; CMV-LACZ in Myotubes, signal relative to DMSO ([5]; 5 uM): 0.8979; CMV-LACZ in Myotubes, signal relative to DMSO ([5]; 10 uM): 1.0868; CMV-LACZ in Myotubes, signal relative to DMSO ([5]; 20 uM): 0.7116; CMV-LACZ in Myotubes, signal relative to DMSO ([5]; 40 uM): 0.5021
